{"source": "patent US20070259962A1", "about": "“Use of N-Arylhydrazine Derivatives for Combating Pests in and on Animals” (priority 2003, published 2007)", "key": {"[1]": {"tested_on": "Stomoxys calcitrans", "assay": "contact activity via glass contact, stable fly", "conditions": "rate 10 ppm", "description": "(§1) 1. Screening method to test contact activity against stable fly, yellowfever mosquito, house mosquito, malaria mosquito, cat flea, and brown dog tick via glass contact\n(§2) Glass vials (20 ml scintillation vials) were treated with 0.5 ml of a solution of active ingredient in acetone. Each vial was rolled uncapped for ca. 10 minutes to allow the a.i. to completely coat the vial and to allow for full drying of the acetone. Insects or ticks were placed into each vial.\n(§3) Each test was replicated at least 3 times."}, "[2]": {"tested_on": "Aedes aegypti", "assay": "contact activity via glass contact, yellowfever mosquito", "conditions": "rate 10 ppm", "description": "as §1, §2, §3"}, "[3]": {"tested_on": "Culex quinquefasciatus", "assay": "contact activity via glass contact, house mosquito", "conditions": "rate 0.5 ppm", "description": "as §1, §2, §3"}, "[4]": {"tested_on": "Anopheles albimanus", "assay": "contact activity via glass contact, malaria mosquito", "conditions": "rate 1 ppm", "description": "as §1, §2, §3"}, "[5]": {"tested_on": "Ctenocephalides felis", "assay": "contact activity via glass contact, cat flea", "conditions": "rate 100 ppm", "description": "as §1, §2, §3"}, "[6]": {"tested_on": "Aedes aegypti", "assay": "contact activity via water treatment, yellowfever mosquito larvae", "conditions": "yellowfever mosquito larvae (4th-instars), rate 10 ppm", "description": "(§4) 2. Screening method to test contact activity against yellowfever mosquito, southern house mosquito, and malaria mosquito larvae via water treatment\n(§5) Well plates were used as test arenas. The active ingredient was dissolved in acetone and diluted with water to obtain the concentrations needed. The final solutions containing appr. 1% acetone were placed into each well. Approximately 10 mosquito larvae (4th-instars) in 1 ml water were added to each well. Larvae were fed one drop of liver powder each day. The dishes were covered and maintained at 22° C. Mortality was recorded daily and dead larvae and live or dead pupae were removed daily. At the end of the test remaining live larvae were recorded and percent mortality was calculated.\nas §3"}, "[7]": {"tested_on": "Culex quinquefasciatus", "assay": "contact activity via water treatment, southern house mosquito larvae", "conditions": "house mosquito larvae (4th-instars), rate 10 ppm", "description": "as §4, §5, §3"}, "[8]": {"tested_on": "Anopheles albimanus", "assay": "contact activity via water treatment, malaria mosquito larvae", "conditions": "malaria mosquito larvae (4th-instars), rate 1.0 ppm", "description": "as §4, §5, §3"}}, "data": [{"smiles": "CCN/C(=N\\Nc1c(Cl)cc(C(F)(F)F)cc1Cl)C(C)(C)C", "note": "[I-1, N-ethyl-2,2-dimethylpropionamide-2-(2,6-dichloro-α,α,α-trifluoro-p-tolyl)-hydrazone]", "values": [{"measurement": "Days or Hours to achieve 100% mortality", "setting": "[1]", "result": 4, "unit": "h"}, {"measurement": "Days or Hours to achieve 100% mortality", "setting": "[2]", "result": 4, "unit": "h"}, {"measurement": "Days or Hours to achieve 100% mortality", "setting": "[3]", "result": 4, "unit": "h"}, {"measurement": "Days or Hours to achieve 100% mortality", "setting": "[4]", "result": 1, "unit": "days"}, {"measurement": "Days or Hours to achieve 100% mortality", "setting": "[5]", "result": 2, "unit": "days"}, {"measurement": "Days or Hours to achieve 100% mortality", "setting": "[6]", "result": 2, "unit": "days"}, {"measurement": "Days or Hours to achieve 100% mortality", "setting": "[7]", "result": 1, "unit": "days"}, {"measurement": "Days or Hours to achieve 100% mortality", "setting": "[8]", "result": 1, "unit": "days"}]}, {"smiles": "CCN/C(=N\\Nc1c(Cl)cc(C(F)(F)F)cc1Cl)C1(C)CC1(Cl)Cl", "note": "(stereo not drawn) [1-2, N-Ethyl-2,2-dichloro-1-methylcyclopropane-carboxamide-2-(2,6-dichloro-α,α,α-trifluoro-p-tolyl)hydrazone]", "values": [{"measurement": "Days or Hours to achieve 100% mortality", "setting": "[1]", "result": 4, "unit": "h"}, {"measurement": "Days or Hours to achieve 100% mortality", "setting": "[2]", "result": 4, "unit": "h"}, {"measurement": "Days or Hours to achieve 100% mortality", "setting": "[3]", "result": 4, "unit": "h"}, {"measurement": "Days or Hours to achieve 100% mortality", "setting": "[4]", "result": 1, "unit": "days"}, {"measurement": "Days or Hours to achieve 100% mortality", "setting": "[5]", "result": 2, "unit": "days"}, {"measurement": "Days or Hours to achieve 100% mortality", "setting": "[6]", "result": 2, "unit": "days"}, {"measurement": "Days or Hours to achieve 100% mortality", "setting": "[7]", "result": 1, "unit": "days"}, {"measurement": "Days or Hours to achieve 100% mortality", "setting": "[8]", "result": 1, "unit": "days"}]}]}
